Measurements from patent US20260097047A1, “Small molecule inhibitors of the ribosome biogenesis factor NVL2” (Board of Regents, The University of Texas System, priority 2023, published 2026).
Like-named read-outs stand apart in the source and are kept apart here.

Test system: HCT116 cells
Experiment: Cell viability assay (CellTiter-Glo, 72 hours) in HCT116 human colorectal cancer cells
Assay type: cell-based
Description: Cell culture: The HCT116 cell line was obtained from ATCC and cultured in Dulbecco's Modified Eagle's Medium (DMEM)-high glucose (Sigma Aldrich #D5796) supplemented with 10% fetal bovine serum (FBS) (Sigma-Aldrich #F2442) and 2 mM L-Glutamine (Sigma Aldrich #G7513). Cells were cultured at 37° C. in 5% CO2. The identity of all cell lines was confirmed by short tandem repeat (STR) analysis and confirmed to be mycoplasma-free using a PCR based assay (Genatlantis).
Cell viability assay: In 96-well assay plates (Corning #2903), 2,000 cells were plated per well in 100 μL of medium and allowed to adhere overnight. The next day, compounds suspended in DMSO were dispensed to the assayed wells using a D300e Digital Dispenser (Tecan). All wells were normalized to 0.5% DMSO. 72 hours after incubation at 37° C. in 5% CO2, cell viability was assayed using an ATP-based luminescent viability assay, CellTiter-Glo (Promega #G8462). Substrate was mixed 1:1 with phosphate-buffered saline (PBS) supplemented with 1% Triton X-100, and 40 μL of this mixture was added to the assay wells. Plates were shaken on a microplate shaker for 10 minutes at room temperature. Luminescence (CellTiter-Glo) was recorded using a Synergy 2 microplate reader (BioTek). In Prism 9 software (GraphPad), ten-point dose response curves were plotted with baseline-correction to the vehicle control well, and IC50 values were calculated by curve fitting using asymmetric (five parameter), least squares fit.

[1] = Table 9, HCT116, 72 hours, read-out: Activity
[2] = Table 8, analogs of scaffold drawing 43 defined by R^2, R^3, X/Y, W, read-out: Activity (IC50 class, cell viability assay)

Row | Structure (SMILES) | IC50 [1] [nM] | IC50 [2] [nM]
1 | COc1ccc(C(=O)Nc2ccc3c(c2)C(C)(O)c2ccccc2C(=O)N3CC#CCl)cn1 (centres unmarked) | < 500 | 
2 | CC#CCN1C(=O)c2ccccc2C(C)c2cc(NC(=O)C34CC(O)(C3)C4)ccc21 (centres unmarked) | < 500 | 
3 | CC#CCN1C(=O)c2ccccc2C(C)c2cc(NC(=O)C3CC4(CC(O)C4)C3)ccc21 (centres unmarked) | < 500 | 
4 | CC#CCN1C(=O)c2ccccc2C(C)c2cc(NC(=O)C3CC4(CC(=NO)C4)C3)ccc21 (centres unmarked) | < 500 | 
5 | CC#CCN1C(=O)c2ccccc2C(C)c2cc(NC(=O)C3CC4(CC(=O)C4)C3)ccc21 (centres unmarked) | < 500 | 
6 | CC#CCN1C(=O)c2ccccc2C(C)c2cc(NC(=O)CC3COC3)ccc21 (centres unmarked) | < 500 | 
7 | CC#CCN1C(=O)c2ccccc2C(C)c2cc(NC(=O)C3CCOC3)ccc21 (centres unmarked) | < 500 | 
8 | CC#CCN1C(=O)c2ccccc2C(C)c2cc(NC(=O)C3CC3CO)ccc21 (centres unmarked) | < 500 | 
9 | CC1c2ccccc2C(=O)N(CC#CC2CC2)c2ccc(NC(=O)C3CC4(COC4)C3)cc21 (centres unmarked) | < 500 | 
10 | COC12CC(C(=O)Nc3ccc4c(c3)C(C)c3ccccc3C(=O)N4CC#CC3CC3)(C1)C2 (centres unmarked) | < 500 | 
11 | CC1c2ccccc2C(=O)N(CC#CC2CC2)c2ccc(NC(=O)C3CC4(CC(O)C4)C3)cc21 (centres unmarked) | < 500 | 
12 | CC1c2ccccc2C(=O)N(CC#CC2CC2)c2ccc(NC(=O)C3CC4(CC(=NO)C4)C3)cc21 (centres unmarked) | < 500 | 
13 | CC1c2ccccc2C(=O)N(CC#CC2CC2)c2ccc(NC(=O)C3CC4(CC(=O)C4)C3)cc21 (centres unmarked) | < 500 | 
14 | CC1c2ccccc2C(=O)N(CC#CC2CC2)c2ccc(NC(=O)CC3COC3)cc21 (centres unmarked) | < 500 | 
15 | CC1c2ccccc2C(=O)N(CC#CC2CC2)c2ccc(NC(=O)C3CCCO3)cc21 (centres unmarked) | < 500 | 
16 | CC1c2ccccc2C(=O)N(CC#CC2CC2)c2ccc(NC(=O)C3CCOC3)cc21 (centres unmarked) | < 500 | 
17 | COC1CC(C(=O)Nc2ccc3c(c2)C(C)c2ccccc2C(=O)N3CC#CC2CC2)C1 (centres unmarked) | < 500 | 
18 | COC12CC(C(=O)Nc3cnc4c(c3)Sc3ccccc3C(=O)N4CC#CC(F)(F)F)(C1)C2 |  | < 500
19 | O=C(Nc1cnc2c(c1)Sc1ccccc1C(=O)N2CC#CC(F)(F)F)C1CC2(CC(=NO)C2)C1 (centres unmarked) |  | < 500

Row | Structure (SMILES) | IC50 [1] [nM] | IC50 [2] [nM]
20 | C#CCN1C(=O)c2ccc(Cl)cc2Sc2cc(NC(=O)C3CC4(CC(=NO)C4)C3)cnc21 (centres unmarked) |  | < 500
21 | C#CCN1C(=O)c2ccc(Cl)cc2Sc2cc(NC(=O)C3CC4(CC(=NOC)C4)C3)cnc21 (centres unmarked) |  | < 500
22 | CC#CCN1C(=O)c2ccccc2Sc2cc(NC(=O)C3CCCN3C)ccc21 (centres unmarked) |  | < 500
23 | CC#CCN1C(=O)c2ccccc2Sc2cc(NC(=O)C3CCN(C)C3)ccc21 (centres unmarked) |  | 1000 to 5000
24 | CC#CCN1C(=O)c2cc(F)ccc2Sc2cc(NC(=O)C3CC4(COC4)C3)ccc21 |  | < 500
25 | CC#CCN1C(=O)c2ccccc2Sc2cc(NC(=O)C3CCNC3=O)ccc21 (centres unmarked) |  | 500 to 1000
26 | CC#CCN1C(=O)c2cc(F)ccc2Sc2cc(NC(=O)C34CC(O)(C3)C4)ccc21 |  | < 500
27 | CC#CCN1C(=O)c2ccc(F)cc2Sc2cc(NC(=O)c3ccc4oc(=O)n(C)c4c3)ccc21 |  | < 500
28 | CC#CCN1C(=O)c2cc(F)ccc2Sc2cc(NC(=O)c3ccc4oc(=O)n(C)c4c3)ccc21 |  | < 500
29 | CC#CCN1C(=O)c2ccccc2Sc2cc(NC(=O)C3CC4(CC(=NO)C4)C3)ccc21 (centres unmarked) |  | < 500
30 | CC#CCN1C(=O)c2ccc(F)cc2Sc2cc(NC(=O)C3CC4(CC(=NO)C4)C3)ccc21 (centres unmarked) |  | < 500
31 | CC#CCN1C(=O)c2cc(F)ccc2Sc2cc(NC(=O)C3CC4(CC(=NO)C4)C3)ccc21 (centres unmarked) |  | < 500
32 | CC#CCN1C(=O)c2ccc(F)cc2Sc2cc(NC(=O)C3CC4(CC(=NOC)C4)C3)ccc21 (centres unmarked) |  | < 500
33 | CC#CCN1C(=O)c2cc(F)ccc2Sc2cc(NC(=O)C3CC4(CC(=NOC)C4)C3)ccc21 (centres unmarked) |  | < 500
34 | CC#CCN1C(=O)c2ccccc2Sc2cc(NC(=O)C3CC4(CC(=O)C4)C3)ccc21 |  | < 500
35 | CC#CCN1C(=O)c2ccccc2Sc2cc(NC(=O)C3CCN(C)C3=O)ccc21 (centres unmarked) |  | 500 to 1000
36 | CC#CCN1C(=O)c2ccc(F)cc2Sc2cc(NC(=O)c3ccc4scnc4c3)ccc21 |  | < 500
37 | CC#CCN1C(=O)c2ccccc2Sc2cc(NC(=O)C3CCCO3)ccc21 (centres unmarked) |  | < 500
38 | CC#CCN1C(=O)c2ccccc2Sc2cc(NC(=O)C3CCOC3)ccc21 (centres unmarked) |  | < 500
